Legend:
[1] = target: Thymidine kinase 2, mitochondrial (rat); assay: Competitive inhibition against rat Mitochondrial thymidine kinase
[2] = target: Thymidine kinase 2, mitochondrial (rat); assay: Non-competitive inhibition against rat mitochondrial thymidine kinase
[3] = target: Thymidine kinase 2, mitochondrial (rat); assay: Noncompetitive inhibition against rat mitochondrial thymidine kinase
[4] = target: Thymidine kinase 2, mitochondrial (rat); assay: Competitive inhibition against rat Mitochondrial thymidine kinase; remark: listed apart in the source

## CCO[C@H]1C[C@H](n2cc(C)c(=O)[nH]c2=O)O[C@@H]1CO [1-(4-Ethoxy-5-hydroxymethyl-tetrahydro-furan-2-yl)-5-methyl-1H-pyrimidine-2,4-dione]
[1]
  Ki: 0.056 mM

## C/C=C/c1cn([C@H]2C[C@H](O)[C@@H](CO)O2)c(=O)[nH]c1=O [1-(4-Hydroxy-5-hydroxymethyl-tetrahydro-furan-2-yl)-5-propenyl-1H-pyrimidine-2,4-dione(BVDU)]
[2]
  Ki: 0.51 mM

## Nc1nc(=O)n([C@H]2C[C@H](O)[C@@H](CO)O2)cc1I [4-Amino-1-(4-hydroxy-5-hydroxymethyl-tetrahydro-furan-2-yl)-5-iodo-1H-pyrimidin-2-one]
[3]
  Ki: 3.5 mM

## Cc1cn([C@H]2C[C@H](O)[C@@H](CO)O2)c(=O)nc1N [4-Amino-1-(4-hydroxy-5-hydroxymethyl-tetrahydro-furan-2-yl)-5-methyl-1H-pyrimidin-2-one]
[4]
  Ki: 1.3 mM

## Cc1cn(C2CC(O)C(CSCCCC(=O)O)O2)c(=O)[nH]c1=O (stereo not given) [4-[3-Hydroxy-5-(5-methyl-2,4-dioxo-3,4-dihydro-2H-pyrimidin-1-yl)-tetrahydro-furan-2-ylmethylsulfanyl]-butyric acid]
[2]
  Ki: 8.5 mM

— BindingDB's records for doi:10.1021/jm00348a007 (1982)
